# According to patent US9545437B2, “Peptide vaccines for cancers expressing MPHOSPH1 or DEPDC1 polypeptides” (ONCOTHERAPY SCIENCE, INC., priority 2006, dated 2017):
# “Also recorded” adds a separate entry of the source.
# Experiments:
# [1] = system: J82 cells; assay: CTL activity against bladder cancer cell line J82; assay type: cell-based; details: J82 express the antigen but not HLA-A24; listed as DEPDC1-A24-9-294
# [2] = system: RT-4 cells; assay: CTL activity against bladder cancer cell line RT-4; assay type: cell-based; details: RT-4 express the antigen but not HLA-A24; listed as DEPDC1-A24-9-294
# [3] = system: BALB/c mice (H-2Kd); assay: Immunogenicity of epitope peptides in BALB/c mice (splenocyte IFN-gamma ELISPOT); assay type: in vivo, mouse; details: IFA-conjugated peptide s.c. days 0 and 7, splenocytes day 14, compared with IFA alone
# Protocol: For induction of the peptide-specific CTLs, immunization was given using […] of vaccine mixture, which contains 50 mcl (100 mcg) of HLA-A24 restricted peptide and 50 mcl of IFA per mouse. The vaccine was subcutaneously injected in the right flank for the first immunization on day 0 and in the left flank for the second on the day 7. On day 14, splenocytes of the vaccinated mice, without any in vitro stimulation, were used responder cells, and RLmale1 cells pulsed with or without peptides were used as the stimulator cells for IFN-gamma ELISPOT assay.
# [4] = system: bladder cancer patients with HLA-A*2402; assay: Clinical trial of epitope peptide vaccination in bladder cancer patients; assay type: in vivo, human; details: for specific CTL response after vaccination: Case 3
# Protocol: The synthesized GMP grade peptides were purchased from Neo Multi Peptide System (MPS) (San Diego, Calif.). As an adjuvant, incomplete Freund's adjuvant (IFA) (MONTANIDE *ISA51) were used. 1 mg of the appropriate peptide was emulsioned with […].
# Enrolled bladder cancer patients with HLA-A*2402, whose tumors express M phase phosphoprotein 1 (MPHOSPH1) and/or DEP domain containing 1 (DEPDC1) were immunized with HLA-A*2402-restricted epitope peptides, MPHOSPH1-9-278 (IYNEYIYDL (SEQ ID NO: 7)) and/or DEPDC1-9-294 (EYYELFVNI (SEQ ID NO: 12)). Each peptide was combined with 1 mL of incomplete Freund's adjuvant (IFA, MONTANIDE *ISA51) and was subcutaneously injected into axillary or inguinal lesion once a week. Four times injection is defined as one course, then after 1 course for immunological and clinical evaluation, blood was drawn and CT/MRI was performed.
# Evaluation of adverse effect was performed along with National Cancer Institute-Common Toxicity Criteria version 3, (NCI-CTC ver.3).
# Peripheral blood mononuclear cells were collected, and re-stimulated by the appropriate peptides. CTL response was tested on the 14th day by IFN-g ELISPOT assay.
# Evaluation of clinical response was performed in accordance with RECIST criteria.
sequence,measurement,setting,value
EYYELFVNI [SEQ ID NO: 12],CTL activity of the CTL clone raised by the peptide,[1],did not show significant CTL activity; also recorded: no showing response
same,CTL activity of the CTL clone raised by the peptide,[2],did not show significant CTL activity; also recorded: no showing response
same,IFN-gamma production of splenocytes of vaccinated mice (ELISPOT),[3],potent IFN-gamma production
same,progression rate of metastatic tumor,"[4]; Case 3, lung metastases, after vaccination",decreased
same,specific CTL response after vaccination,[4]; listed as DEPDC1 derived peptide,clearly shown
same,specific CTL response after vaccination,[4]; listed as epitope peptide derived from DEPDC1,strongly shown
same,clinical response,"[4]; single cases, RECIST criteria",minor response
